Assay results as given in paper PMC7880572 (ACS Chemical Neuroscience, 2021).
Like-named read-outs stand apart in the source and are kept apart here.

Legend:
AChE = test system: AChE; design: method as in PMID 25924599; details: first series; cited from earlier work
Aβ40 = biological target: T1, Aβ40 (Homo sapiens, UniProt P05067); test: Inhibition of self-induced Aβ40 aggregation (ThT fluorescence, HFIP); type: biochemical; details: Aβ40 30 μM, mean ± SEM, n = 3; for IC50: 2 h at 25 °C, PBS 2% HFIP, read-out: Aβ40 aggr IC50; for inhibition at 100 µM: read-out: Aβ40 aggr % inhibition
T1 construct: samples of Aβ40 (30 μM) were coincubated for 2 h at 25 °C with test molecules; purchased EzBiolab, Carmel, IN, USA
T1 sequence (P05067 672-711 limits assumed): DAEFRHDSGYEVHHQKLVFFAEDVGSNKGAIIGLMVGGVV
Description: In vitro inhibition of Aβ40 aggregation was assessed following a previously reported thioflavin T (ThT) fluorescence-based method involving the use of hexafluoroisopropanol (HFIP) as aggregation enhancer. […].
In vitro inhibition assay of Aβ40 aggregation has been previously reported[41] and adapted to a 96-well plate platform.
(§1) After incubation in 96-well black, nonbinding microplates (Greiner Bio-One GmbH, Frickenhausen, Germany), thioflavin T (25 μM) was added and fluorimetric reads (ex 440, em 485 nm) were performed in a multiplate reader Infinite M1000 Pro (Tecan, Cernusco sul Naviglio, Italy). Experiments were run in triplicate. Results were expressed by statistical analysis while IC50 values were obtained by nonlinear regression using Prism software (GraphPad Prism version 5.00 for Windows, GraphPad Software, San Diego, CA, USA).

[1] = biological target: T2, eeAChE (AChE from electric eel) (Electrophorus electricus, UniProt O42275); test: biochemical; details: mean ± SEM, n = 3
T2 construct: purchased Sigma-Aldrich, Milan, Italy
T2 sequence (O42275 24-633): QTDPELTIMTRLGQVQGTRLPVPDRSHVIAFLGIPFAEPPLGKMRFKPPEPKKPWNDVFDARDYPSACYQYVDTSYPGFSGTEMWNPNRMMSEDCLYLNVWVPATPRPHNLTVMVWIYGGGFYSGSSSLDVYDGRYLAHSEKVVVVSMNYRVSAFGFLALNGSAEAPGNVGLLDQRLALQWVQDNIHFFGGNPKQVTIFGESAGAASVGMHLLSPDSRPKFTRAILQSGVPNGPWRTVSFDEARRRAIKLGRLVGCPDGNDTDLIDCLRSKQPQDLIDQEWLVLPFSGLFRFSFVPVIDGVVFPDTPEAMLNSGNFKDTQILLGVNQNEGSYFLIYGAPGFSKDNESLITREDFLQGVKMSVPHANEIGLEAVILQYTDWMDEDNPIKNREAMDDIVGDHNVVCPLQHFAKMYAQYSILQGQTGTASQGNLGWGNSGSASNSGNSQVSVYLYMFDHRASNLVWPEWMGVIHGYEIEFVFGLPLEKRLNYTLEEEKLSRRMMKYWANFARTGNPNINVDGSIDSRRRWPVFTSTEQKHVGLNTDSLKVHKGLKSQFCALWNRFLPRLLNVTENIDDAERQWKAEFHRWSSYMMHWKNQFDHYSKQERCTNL

[2] = biological target: T3, esBChE (BChE from equine serum) (Equus caballus, UniProt P81908); test: biochemical; details: mean ± SEM, n = 3
T3 construct: BChE from horse serum (13 U/mL); purchased Sigma-Aldrich, Milan, Italy; host or cells: horse serum
T3 sequence (P81908 whole entry): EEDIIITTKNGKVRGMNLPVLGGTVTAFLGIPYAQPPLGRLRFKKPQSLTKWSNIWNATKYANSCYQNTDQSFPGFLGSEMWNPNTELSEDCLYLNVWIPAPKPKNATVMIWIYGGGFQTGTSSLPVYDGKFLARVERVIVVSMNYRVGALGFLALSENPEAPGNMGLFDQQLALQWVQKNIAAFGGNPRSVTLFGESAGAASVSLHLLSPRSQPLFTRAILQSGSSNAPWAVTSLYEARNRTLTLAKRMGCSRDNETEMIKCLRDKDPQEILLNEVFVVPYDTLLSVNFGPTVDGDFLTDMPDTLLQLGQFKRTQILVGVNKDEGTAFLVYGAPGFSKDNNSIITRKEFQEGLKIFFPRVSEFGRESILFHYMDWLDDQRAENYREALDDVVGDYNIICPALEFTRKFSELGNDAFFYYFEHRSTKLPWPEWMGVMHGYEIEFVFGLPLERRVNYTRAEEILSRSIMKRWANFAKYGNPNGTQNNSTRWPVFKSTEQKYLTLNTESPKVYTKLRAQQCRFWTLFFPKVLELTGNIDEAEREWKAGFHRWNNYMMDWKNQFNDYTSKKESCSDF

hMAO A = biological target: T4, hMAO A (Homo sapiens, UniProt P21397); test: MAO A inhibition (fluorimetric kynuramine assay); type: biochemical; details: mean ± SEM, n = 3
T4 construct: purchased Sigma-Aldrich
T4 sequence (P21397 1-527): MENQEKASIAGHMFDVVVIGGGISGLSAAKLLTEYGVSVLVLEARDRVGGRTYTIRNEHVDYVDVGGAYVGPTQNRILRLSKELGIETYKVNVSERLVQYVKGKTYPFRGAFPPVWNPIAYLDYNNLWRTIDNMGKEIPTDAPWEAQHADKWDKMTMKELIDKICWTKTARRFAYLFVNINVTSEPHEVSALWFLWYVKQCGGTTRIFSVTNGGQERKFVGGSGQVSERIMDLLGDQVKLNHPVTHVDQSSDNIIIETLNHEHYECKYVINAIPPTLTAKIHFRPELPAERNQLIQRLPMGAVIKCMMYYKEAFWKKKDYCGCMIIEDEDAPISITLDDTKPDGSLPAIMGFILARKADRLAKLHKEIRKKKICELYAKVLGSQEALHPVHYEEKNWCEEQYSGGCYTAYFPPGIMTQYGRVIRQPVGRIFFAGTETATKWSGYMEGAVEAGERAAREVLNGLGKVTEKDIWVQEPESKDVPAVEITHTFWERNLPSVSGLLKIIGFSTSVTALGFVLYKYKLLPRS

MAO B [3] = biological target: T5, MAO B (Homo sapiens, UniProt P27338); test: MAO B inhibition (fluorimetric kynuramine assay, inhibition kinetics); type: biochemical; details: mean ± SEM, n = 3
T5 construct: purchased Sigma-Aldrich
T5 sequence (P27338 1-520): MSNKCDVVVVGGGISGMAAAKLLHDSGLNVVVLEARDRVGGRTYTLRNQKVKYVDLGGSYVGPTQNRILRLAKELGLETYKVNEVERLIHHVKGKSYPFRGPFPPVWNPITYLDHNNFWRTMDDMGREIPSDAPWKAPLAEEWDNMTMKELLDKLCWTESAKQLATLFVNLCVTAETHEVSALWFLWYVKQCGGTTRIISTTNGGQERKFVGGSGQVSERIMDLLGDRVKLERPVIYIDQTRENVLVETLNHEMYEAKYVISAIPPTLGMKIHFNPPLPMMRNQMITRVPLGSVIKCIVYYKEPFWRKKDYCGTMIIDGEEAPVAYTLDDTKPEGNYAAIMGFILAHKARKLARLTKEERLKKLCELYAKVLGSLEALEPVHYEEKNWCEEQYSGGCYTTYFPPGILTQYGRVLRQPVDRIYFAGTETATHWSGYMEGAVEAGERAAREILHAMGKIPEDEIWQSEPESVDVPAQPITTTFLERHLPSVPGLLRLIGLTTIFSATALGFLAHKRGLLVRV

BChE = test system: BChE; design: method as in PMID 25924599; details: first series; cited from earlier work
in vitro = details: PAMPA, pH 7.4
cerebellar granule cells = test: In vitro cytotoxicity (MTT); type: cell-based; details: CGCs, compound 10 μM, 48 h, mean ± SEM
Description: . […] For a more meaningful assessment of the value of the present compounds, the issue of their toxicity, in comparison to established drugs for AD, should deserve further investigation.
Cerebellar granule cells were prepared from 8-day-old Sprague Dawley rats as described previously.[66] Cells were studied from the 6th to the 12th day in vitro. The experimental procedures and care of the animals were performed in compliance with the Directive of the EU Parliament and Council of September 22, 2010 (2010/63/EU) and were approved by the Italian Ministry of Health (COD. 75F11.N.6DX) in accordance with D.M. 116/1992. All efforts were made in order to minimize animal suffering and the number of animals necessary to obtain reliable results.
[…]. Cells were maintained in 5% CO2 at 37 °C. The cell viability was assessed by the MTT assay 48 h after the treatment. […]. The survival rates of viable cells were calculated by comparing the optical absorbance of treated samples with that of the untreated controls. All experiments were repeated at least three times independently, and data are expressed as the mean ± SEM.

Aβ42 = biological target: T6, Aβ42 (Homo sapiens, UniProt P05067); test: Inhibition of Aβ42 fibrillation by ThT fluorescence assay; type: biochemical; details: 100 and 5 μM, Aβ42 30 μM, 37 °C, 48 h
T6 construct: purchased EzBiolab, Carmel, IN, USA
T6 sequence (P05067 672-713 limits assumed): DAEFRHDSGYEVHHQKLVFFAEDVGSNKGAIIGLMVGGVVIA
Description: Its high propensity to self-aggregate allows a fast execution of aggregation assays without the need of aggregation enhancers as for Aβ40.
Quercetin (QUR) was used as reference compound.
as §1

MAO B [4] = biological target: T5, MAO B; test: MAO B kynuramine assay in spectrophotometric mode (4-hydroxyquinoline absorbance at 316 nm), incl. time course; type: biochemical; details: 100 nM inhibitor
[5] = based on the PAMPA-BBB classification range from Di et al.

O=C1C=C(NC[C@@H]2CCCN3CCCC[C@H]23)C(=O)c2ccccc21 [I]
IC50 (AChE): 5.8 µM

O=C1C(Cl)=C(NCCn2cnc3ccccc32)C(=O)c2ccccc21 [Compound 6, 2-[2-(1H-Benzimidazol-1-yl)ethylamino]-3-chloro-1,4-naphthoquinone]
IC50 (Aβ40): 19 ± 4 µM
IC50 [1]: 6.8 ± 0.7 µM
inhibition at 10 µM [2]: 24%
inhibition at 10 µM (hMAO A): 23%
inhibition at 10 µM (MAO B [3]): 24%

O=C1c2ccccc2C(=O)c2c(NCCc3c[nH]c4ccccc34)cccc21 [Compound 13, 1-{[2-(1H-Indol-3-yl)ethyl]amino}-9,10-anthraquinone]
inhibition at 100 µM (Aβ40): ~60%
IC50 [1]: 1.85 ± 0.04 µM
inhibition at 10 µM [2]: 17%
inhibition at 10 µM (hMAO A): 25%
inhibition at 10 µM (MAO B [3]): 42%

O=C1c2ccccc2C(=O)c2c(NCc3ccccc3)cccc21 [Compound 10, 1-(Benzylamino)-9,10-anthraquinone]
inhibition at 100 µM (Aβ40): ~60%
IC50 [1]: 8.7 ± 0.5 µM
inhibition at 10 µM [2]: 24%
IC50 (hMAO A): 1.1 ± 0.3 µM
inhibition at 10 µM (MAO B [3]): 34%

O=C1c2ccccc2C(=O)c2c(SC[C@@H]3CCCN4CCCC[C@H]34)cccc21 [XIV]
IC50 (AChE): 3.8 µM
IC50 (BChE): 3.4 µM

O=C1C(Cl)=C(NC(Cc2ccccc2)C(=O)O)C(=O)c2ccccc21 (centres unmarked) [Compound 8]
IC50 (Aβ40): 17 ± 2 µM
IC50 [1]: 13 ± 2 µM
inhibition at 10 µM [2]: 14%
inhibition at 10 µM (hMAO A): 26%
IC50 (MAO B [3]): 2.7 ± 0.8 µM
CNS prediction [5]: CNS+
Papp at 16 h (in vitro): 6.1 ± 0.4 ×10⁻⁶ cm/s

CCn1cc(C(=O)O)c(=O)c2cc(F)c(N3CCNCC3)cc21 [Norfloxacin]
Papp at 16 h (in vitro): 0.3 ×10⁻⁶ cm/s

O=C1C(Cl)=C(NCCc2c[nH]c3ccccc23)C(=O)c2ccccc21 [Compound 5]
IC50 (Aβ40): 6.6 ± 0.1 µM
IC50 [1]: 8.7 ± 0.8 µM
inhibition at 10 µM [2]: 29%
IC50 (hMAO A): 5 ± 0.2 µM
IC50 (MAO B [3]): 0.11 ± 0.01 µM
cell viability vs control (%) (cerebellar granule cells): 85 ± 14%
CNS prediction [5]: CNS+
Papp at 16 h (in vitro): 14.3 ± 1.3 ×10⁻⁶ cm/s

O=C1c2ccccc2C(=O)c2c(NCCCSC[C@@H]3CCCN4CCCC[C@H]34)cccc21 [XII]
IC50 (BChE): 1.1 µM

CN(C)CCCN1c2ccccc2Sc2ccc(Cl)cc21 [Chlorpromazine]
Papp at 16 h (in vitro): 7.2 ×10⁻⁶ cm/s

CC(=O)[C@H]1CC[C@H]2[C@@H]3CCC4=CC(=O)CC[C@]4(C)[C@H]3CC[C@]12C [Progesterone]
Papp at 16 h (in vitro): 11.7 ×10⁻⁶ cm/s

CN1C(C(=O)Nc2ccccn2)=C(O)c2ccccc2S1(=O)=O [Piroxicam]
Papp (in vitro): 1.6 ×10⁻⁶ cm/s

O=C1C(Cl)=C(NCCCC2CCCN3CCCCC23)C(=O)c2ccccc21 (centres unmarked) [VI]
IC50 (AChE): 0.011 µM
IC50 (BChE): 12 µM

Clc1cccc(Cl)c1N=C1NCCN1 [Clonidine]
Papp at 16 h (in vitro): 5.6 ×10⁻⁶ cm/s

O=C1C(Cl)=C(Nc2ccccc2)C(=O)c2ccccc21 [Compound 1]
inhibition at 100 µM (Aβ40): ~60%
inhibition at 10 µM ([1]; at 10 μM): 39%
inhibition at 10 µM [2]: 8%
inhibition at 10 µM (hMAO A): < 5%
inhibition at 10 µM (MAO B [3]): 22%

O=c1c(O)c(-c2ccc(O)c(O)c2)oc2cc(O)cc(O)c12 [quercetin, reference compound]
CNS prediction (PAMPA): CNS-
Papp at 16 h (in vitro): 0.14 ± 0.06 ×10⁻⁶ cm/s

O=C1C(Cl)=C(NCCn2nnc3ccccc32)C(=O)c2ccccc21 [Compound 7, 2-{[2-(1H-Benzotriazol-1-yl)ethy]amino}-3-chloro-1,4-naphthoquinone]
IC50 (Aβ40): 8.7 ± 0.4 µM
IC50 [1]: 1.7 ± 0.1 µM
inhibition at 10 µM [2]: 15%
inhibition at 10 µM (hMAO A): 21%
IC50 (MAO B [3]): 0.48 ± 0.08 µM

CCn1cc(C(=O)O)c(=O)c2cc(F)c(N3CCNC(C)C3)c(F)c21 (centres unmarked) [Lomefloxacin]
Papp at 16 h (in vitro): 1.5 ×10⁻⁶ cm/s

O=C1c2ccccc2C(=O)c2c(NCC[C@@H]3CCCN4CCCC[C@H]34)cccc21 [X]
IC50 (AChE): 0.84 µM

O=C1c2ccccc2C(=O)c2c(NCCn3nnc4ccccc43)cccc21 [Compound 14, 1-{[2-(1H-Benzotriazol-1-yl)ethyl]amino}-9,10-anthraquinone]
IC50 (Aβ40): 11 ± 2 µM
IC50 [1]: 8.1 ± 0.5 µM
IC50 [2]: 3.4 ± 0.2 µM
inhibition at 10 µM (hMAO A): 53%
IC50 (MAO B [3]): 0.98 ± 0.14 µM
inhibition of Aβ42 aggregation (activity profile) (Aβ42): best activity profile

O=C1C(Cl)=C(NC(Cc2c[nH]c3ccccc23)C(=O)O)C(=O)c2ccccc21 (centres unmarked) [Compound 9]
IC50 (Aβ40): 14 ± 2 µM
IC50 [1]: 11 ± 1 µM
inhibition at 10 µM [2]: 17%
inhibition at 10 µM (hMAO A): 22%
inhibition at 10 µM (MAO B [3]): 52%

NCCc1ccc(O)c(O)c1 [Dopamine]
Papp at 16 h (in vitro): 0.6 ×10⁻⁶ cm/s

C#CCN(C)Cc1ccccc1 [pargyline, reference compound]
MAO B enzymatic activity in time course (MAO B [4]; 1 h preincubation with enzyme): completely inhibited
time until MAO B enzymatic activity came to saturation (MAO B [4]; no preincubation): about 1 h

O=C1C(Cl)=C(NCCCc2ccccc2)C(=O)c2ccccc21 [Compound 4, 2-Chloro-3-(phenylpropylamino)-1,4-naphthoquinone]
IC50 (Aβ40): 8.2 ± 0.3 µM
IC50 [1]: 3.5 ± 0.3 µM
inhibition at 10 µM [2]: 35%
IC50 (hMAO A): 3 ± 0.2 µM
IC50 (MAO B [3]): 0.054 ± 0.001 µM
